Assay results reported in US10532053B2, “Histone deacetylase inhibitor, and preparation method and use thereof” (GUANGDONG ZHONGSHENG PHARMACEUTICAL CO., LTD, priority 2015, dated 2020).
Like-named read-outs stand apart in the source and are kept apart here.

Assays:
HDAC1 = molecular target: T1, HDAC1 (Homo sapiens, UniProt Q13547); experiment: HDAC inhibitory activity, fluorescence-coupled acetylated peptide substrate assay (Lys-Ac-AMC); format: biochemical
T1 construct: purchased BPS Bioscience
T1 sequence (Q13547 whole entry): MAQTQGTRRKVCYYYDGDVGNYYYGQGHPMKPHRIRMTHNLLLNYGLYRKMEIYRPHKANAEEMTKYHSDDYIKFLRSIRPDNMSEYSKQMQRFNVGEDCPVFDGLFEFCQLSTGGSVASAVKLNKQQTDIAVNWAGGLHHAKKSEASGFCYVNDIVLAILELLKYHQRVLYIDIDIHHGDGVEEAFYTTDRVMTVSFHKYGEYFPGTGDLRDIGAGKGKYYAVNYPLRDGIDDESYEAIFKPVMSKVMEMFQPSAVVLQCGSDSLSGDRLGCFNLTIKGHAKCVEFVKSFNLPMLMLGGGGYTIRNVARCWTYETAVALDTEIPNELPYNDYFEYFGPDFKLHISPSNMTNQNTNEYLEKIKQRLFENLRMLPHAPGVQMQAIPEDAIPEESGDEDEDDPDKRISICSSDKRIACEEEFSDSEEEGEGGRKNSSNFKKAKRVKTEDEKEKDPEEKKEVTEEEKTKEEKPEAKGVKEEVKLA
Description: (§2) The HDAC inhibitory activity was determined by fluorescence-coupled acetylated peptide substrate assay (Lys-Ac-AMC). HDAC1 protein was purchased from BPS Bioscience, and the reaction buffer system was a modified tris(hydroxymethyl)aminomethane buffer (pH 7.0). The small molecule compounds of the present invention were prepared by being dissolved in 100% DMSO. HDAC was prepared in a buffer at a certain concentration as an enzyme solution; trypsin and fluorescent group 4-amino-7-coumarin coupled-acetylated peptide (Ac-peptide) substrate were prepared in a buffer at a certain concentration as a substrate solution. The compounds were added into the reaction wells in a 384-well plate at a designed concentration of 10 μM, 1 μM, 0.5 μM, 0.1 μM, 0.05 μM, 0.01 μM, 0.005 μM, 0.001 μM, and 0.00005 μM, respectively, and then 15 μl of the HDAC solution was added into the reaction wells (15 μl of blank buffer to the control well). […] The results were analyzed by GraphPad Prism software and IC50 values were calculated according to the formula: Y=Background Data+(Top Data−Background Data)/(1+10^((Log IC50−X) a curve slope)), where Y: the inhibition rate (%) and X: the concentration of the compound.

HDAC6 = molecular target: T2, HDAC6 (Homo sapiens, UniProt Q9UBN7); experiment: HDAC inhibitory activity, fluorescence-coupled acetylated peptide substrate assay; format: biochemical; conditions: for Selection Ratio HDAC1/6: ratio of IC50 HDAC1 to HDAC6; for Selection Ratio HDAC8/6: ratio of IC50 HDAC8 to HDAC6
T2 sequence (Q9UBN7 1-1215): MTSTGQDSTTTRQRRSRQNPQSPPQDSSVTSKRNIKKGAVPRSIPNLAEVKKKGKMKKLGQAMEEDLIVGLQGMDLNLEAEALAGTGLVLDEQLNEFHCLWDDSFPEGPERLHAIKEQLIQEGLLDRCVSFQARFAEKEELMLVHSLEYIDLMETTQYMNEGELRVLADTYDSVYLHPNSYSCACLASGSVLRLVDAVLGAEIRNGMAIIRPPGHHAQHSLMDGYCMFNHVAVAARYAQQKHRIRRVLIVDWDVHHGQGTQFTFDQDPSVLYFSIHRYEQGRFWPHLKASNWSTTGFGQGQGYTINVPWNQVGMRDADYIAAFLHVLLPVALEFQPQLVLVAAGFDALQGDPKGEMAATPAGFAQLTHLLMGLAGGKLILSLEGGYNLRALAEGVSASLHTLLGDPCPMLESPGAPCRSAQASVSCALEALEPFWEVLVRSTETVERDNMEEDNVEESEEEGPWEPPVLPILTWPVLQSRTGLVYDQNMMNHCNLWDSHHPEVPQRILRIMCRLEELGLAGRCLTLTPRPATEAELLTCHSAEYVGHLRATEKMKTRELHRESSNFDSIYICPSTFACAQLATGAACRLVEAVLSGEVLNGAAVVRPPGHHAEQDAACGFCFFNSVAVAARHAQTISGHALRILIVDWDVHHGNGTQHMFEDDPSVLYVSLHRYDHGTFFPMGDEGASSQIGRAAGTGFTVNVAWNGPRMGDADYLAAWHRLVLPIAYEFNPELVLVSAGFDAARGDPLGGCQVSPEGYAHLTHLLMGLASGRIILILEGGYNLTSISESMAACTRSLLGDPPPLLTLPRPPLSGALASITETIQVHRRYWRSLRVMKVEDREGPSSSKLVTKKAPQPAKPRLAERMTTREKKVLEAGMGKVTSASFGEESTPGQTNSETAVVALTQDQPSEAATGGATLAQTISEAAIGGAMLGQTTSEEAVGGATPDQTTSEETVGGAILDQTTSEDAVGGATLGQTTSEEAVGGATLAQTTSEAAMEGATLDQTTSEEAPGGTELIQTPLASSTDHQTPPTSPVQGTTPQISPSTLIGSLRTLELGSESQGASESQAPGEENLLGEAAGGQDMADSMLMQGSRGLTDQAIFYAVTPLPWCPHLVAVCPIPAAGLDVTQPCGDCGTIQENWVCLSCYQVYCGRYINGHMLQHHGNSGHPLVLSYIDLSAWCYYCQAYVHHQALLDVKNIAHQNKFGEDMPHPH
Description: as §2

[1] = tested on: Human cervical cancer cell Hela; experiment: Cell proliferative activity (MTT / cck-8); format: cell-based; conditions: incubated for 96 hours, read-out: Half-Inhibitory Concentration IC50 Human cervical cancer cell Hela
Description: (§1) Tumor cell line A375: human melanoma cell; H460: lung adenocarcinoma cell; Hela: human cervical cancer cell; HepG2: human liver cancer cell; and SKOV-3: human ovarian cancer cell, were all purchased from ATCC and cultured to logarithmic phase according to the cultivation protocol recommended by ATCC. The cells in the logarithmic phase were plated onto a 96-well plate at 2000-3000 cells/well; in the case of adherent cells, the cells should be adherent to the wall. […] After that, the cell proliferative activity was determined by MTT assay for the tumor cells representing the solid tumor model and by cck-8 assay for the tumor cells representing the hematologic tumor model.

[2] = tested on: Human liver cancer cell HepG2; experiment: Cell proliferative activity (MTT / cck-8); format: cell-based; conditions: incubated for 96 hours, read-out: Half-Inhibitory Concentration IC50 Human liver cancer cell HepG2
Description: as §1

[3] = tested on: Human lung cancer cell H460; experiment: Cell proliferative activity (MTT / cck-8); format: cell-based; conditions: NCI-H460, incubated for 96 hours, read-out: Half-Inhibitory Concentration IC50 Human lung cancer cell H460
Description: as §1

Human melanoma A375 = experiment: Cell proliferative activity (MTT / cck-8); format: cell-based; conditions: A-375, incubated for 96 hours, read-out: Half-Inhibitory Concentration IC50 Human melanoma A375
Description: as §1

[4] = tested on: Human ovarian cancer cell SKOV-3; experiment: Cell proliferative activity (MTT / cck-8); format: cell-based; conditions: SK-OV-3, incubated for 96 hours, read-out: Half-Inhibitory Concentration IC50 Human ovarian cancer cell SKOV-3
Description: as §1

HDAC8 = molecular target: T3, HDAC8 (Homo sapiens, UniProt Q9BY41); experiment: HDAC inhibitory activity, fluorescence-coupled acetylated peptide substrate assay
T3 sequence (Q9BY41 1-377): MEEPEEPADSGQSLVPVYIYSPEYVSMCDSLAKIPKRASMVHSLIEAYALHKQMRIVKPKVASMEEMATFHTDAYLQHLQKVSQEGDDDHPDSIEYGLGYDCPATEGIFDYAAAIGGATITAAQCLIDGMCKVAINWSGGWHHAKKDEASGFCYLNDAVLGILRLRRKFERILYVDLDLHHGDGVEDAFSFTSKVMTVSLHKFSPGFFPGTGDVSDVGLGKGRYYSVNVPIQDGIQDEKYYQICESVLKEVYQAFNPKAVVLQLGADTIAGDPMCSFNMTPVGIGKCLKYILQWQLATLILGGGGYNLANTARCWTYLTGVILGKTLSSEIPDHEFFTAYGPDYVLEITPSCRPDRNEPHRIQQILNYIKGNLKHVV
Description: as §2

Row | IC50 (HDAC1; Table 2) [nM] | IC50 (HDAC1; Table 3) [nM] | IC50 (HDAC6; Table 2) [nM] | IC50 (HDAC6; Table 3) [nM] | Selection Ratio HDAC1/6 (HDAC6) | Selection Ratio HDAC8/6 (HDAC6) | IC50 [1] [nM] | IC50 [2] [nM] | IC50 [3] [nM] | IC50 (Human melanoma A375) [nM] | IC50 [4] [nM] | IC50 (HDAC8; IC50 HDAC8, Table 2) [nM] | IC50 (HDAC8; read-out: IC50 HDAC8, Table 3) [nM] | IC50 (HDAC8; IC50 HDAC8, Table 3) [nM] | SMILES
1 | 100 to 1000 | 172 | < 10 | 8.6 | 20.0 | 137.3 | 100 to 1000 | 100 to 1000 | 100 to 1000 | > 1000 | 100 to 1000 | > 1000 | 1180 | – | Cc1nc(N(C)c2ccc(OCC(=O)NO)cc2)c2ccccc2n1 [II-1, N-hydroxy-2-(4-(methyl(2-methyl-4-quinazolinyl)amino)phenoxy)acetamide]
2 | 100 to 1000 | – | 100 to 1000 | – | – | – | 10 to 100 | 10 to 100 | 100 to 1000 | 100 to 1000 | 10 to 100 | > 1000 | – | – | Cc1nc(N(C)c2cccc(OCCCCC(=O)NO)c2)c2ccccc2n1 [III-14, N-hydroxy-5-(3-(methyl(2-methyl-4-quinazolinyl)amino)phenoxy)pentanamide]
3 | 100 to 1000 | 552 | 10 to 100 | 72 | 7.7 | 68.5 | 100 to 1000 | 100 to 1000 | 100 to 1000 | 100 to 1000 | 100 to 1000 | > 1000 | – | 4930 | Cc1nc(N(C)c2ccc(Oc3ccc(C(=O)NO)cc3)cc2)c2ccccc2n1 [II-6, N-hydroxy-4-(4-(methyl(2-methyl-4-quinazolinyl)amino)phenoxy)benzamide]
4 | – | – | < 10 | 6.4 | 6.9 | 371.3 | > 1000 | > 1000 | > 1000 | > 1000 | > 1000 | > 1000 | – | 2380 | Cc1nc(N(C)c2ccc(OCc3ccc(C(=O)NO)cc3)cc2)c2ccccc2n1 [II-5, N-hydroxy-4-((4-(methyl(2-methyl-4-quinazolinyl)amino)phenoxy)methyl)benzamide]

More lines, now with the values behind:

Row | SMILES | IC50 (HDAC1; Table 2) [nM] | IC50 (HDAC1; Table 3) [nM] | IC50 (HDAC6; Table 2) [nM] | IC50 (HDAC6; Table 3) [nM] | Selection Ratio HDAC1/6 (HDAC6) | Selection Ratio HDAC8/6 (HDAC6) | IC50 [1] [nM] | IC50 [2] [nM] | IC50 [3] [nM] | IC50 (Human melanoma A375) [nM] | IC50 [4] [nM] | IC50 (HDAC8; IC50 HDAC8, Table 2) [nM] | IC50 (HDAC8; read-out: IC50 HDAC8, Table 3) [nM] | IC50 (HDAC8; IC50 HDAC8, Table 3) [nM]
5 | CN(c1ccc(OCCCCC(=O)NO)cc1)c1ncnc2ccccc12 [II-14, N-hydroxy-5-(4-(methyl(4-quinazolinyl)amino)phenoxy)pentanamide] | 100 to 1000 | 203 | 10 to 100 | 49 | 4.1 | 27.1 | > 1000 | > 1000 | > 1000 | > 1000 | > 1000 | > 1000 | 1330 | –
6 | CCCN(c1ccc(OC)c(OCCCC(=O)NO)c1)c1nc(C)nc2ccccc12 [IV-2, N-hydroxy-4-(2-methoxy-5-((2-methyl-4-quinazolinyl)(propyl)amino)phenoxy)butanamide] | > 1000 | – | > 1000 | – | – | – | > 1000 | 100 to 1000 | 100 to 1000 | 100 to 1000 | 100 to 1000 | > 1000 | – | –
7 | CN(c1ccc(Oc2ccc(C(=O)NO)cn2)cc1)c1ncnc2ccccc12 [II-18, N-hydroxy-6-(4-(methyl(4-quinazolinyl)amino)phenoxy)nicotinamide] | 100 to 1000 | 437 | 10 to 100 | 15 | 29.1 | 194.4 | 100 to 1000 | 100 to 1000 | 100 to 1000 | 100 to 1000 | 100 to 1000 | > 1000 | – | 2920
8 | Cc1nc(N(C)c2ccc(OCCCCCC(=O)NO)cc2)c2ccccc2n1 [II-4, N-hydroxy-6-(4-(methyl(2-methyl-4-quinazolinyl)amino)phenoxy)hexanamide] | 100 to 1000 | 272 | 10 to 100 | 34 | 8.0 | 44.4 | > 1000 | > 1000 | > 1000 | > 1000 | 100 to 1000 | > 1000 | 1510 | –
9 | Cc1nc(N(C)c2cccc(OCCCC(=O)NO)c2)c2ccccc2n1 [III-13, N-hydroxy-4-(3-(methyl(2-methyl-4-quinazolinyl)amino)phenoxy)butanamide] | 100 to 1000 | – | 100 to 1000 | – | – | – | 100 to 1000 | 10 to 100 | 100 to 1000 | 100 to 1000 | 10 to 100 | > 1000 | – | –
10 | CN(c1ccc(OCc2ccc(C(=O)NO)cc2)cc1)c1ncnc2ccccc12 [II-16, N-hydroxy-4-((4-(methyl(4-quinazolinyl)amino)phenoxy)methyl)benzamide] | 100 to 1000 | 385 | < 10 | 10 | 38.5 | 167.6 | > 1000 | > 1000 | > 1000 | > 1000 | > 1000 | > 1000 | – | 1680
